Source: ChEMBL document CHEMBL1150016, “Quinuclidine based NK-1 antagonists 2: determination of the absolute stereochemical requirements” (Bioorg Med Chem Lett, 1993)

Target: Substance-P receptor (Homo sapiens, UniProt P25103)
Test: Tested for binding affinity by measuring displacement of [125I]SP from human NK-1 receptor in CHO Cells

Substance-P receptor, sequence (P25103 whole entry): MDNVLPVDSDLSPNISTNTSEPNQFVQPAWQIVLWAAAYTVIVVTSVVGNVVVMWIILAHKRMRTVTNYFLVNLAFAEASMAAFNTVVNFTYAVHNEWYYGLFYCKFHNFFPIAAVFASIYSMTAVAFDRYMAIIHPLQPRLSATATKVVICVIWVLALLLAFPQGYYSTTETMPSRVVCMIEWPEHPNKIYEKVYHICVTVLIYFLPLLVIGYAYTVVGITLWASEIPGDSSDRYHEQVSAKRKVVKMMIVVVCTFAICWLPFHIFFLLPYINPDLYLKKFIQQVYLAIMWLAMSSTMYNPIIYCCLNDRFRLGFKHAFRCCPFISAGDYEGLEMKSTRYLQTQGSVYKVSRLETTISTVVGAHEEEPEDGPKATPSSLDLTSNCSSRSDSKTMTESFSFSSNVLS

SMILES | IC50 [nM]
FC(F)(F)c1cc(CO[C@@H]2C3CCN(CC3)[C@H]2C(c2ccccc2)c2ccccc2)cc(C(F)(F)F)c1 | 270
FC(F)(F)c1cc(CO[C@H]2C3CCN(CC3)[C@@H]2C(c2ccccc2)c2ccccc2)cc(C(F)(F)F)c1 | 0.7
FC(F)(F)c1cc(CO[C@H]2C3CCN(CC3)[C@H]2C(c2ccccc2)c2ccccc2)cc(C(F)(F)F)c1 [L-709210] | 1.3
FC(F)(F)c1cc(CO[C@@H]2C3CCN(CC3)[C@@H]2C(c2ccccc2)c2ccccc2)cc(C(F)(F)F)c1 | 570
